Data taken from patent US20250312352A1, “GLP-1R MODULATING COMPOUNDS” (Gilead Sciences, Inc., priority 2021, published 2025).

Each compound was assayed against T1, GLP-1R (Homo sapiens, UniProt P43220) (assay: GLP-1R activation cAMP assay (Assay 1 or Assay 2)). Conditions: cAMP increase in CHO cells stably expressing GLP-1R; compounds run on one of the two cAMP assays.
T1 construct: host or cells: CHO cells
T1 sequence (P43220 24-463): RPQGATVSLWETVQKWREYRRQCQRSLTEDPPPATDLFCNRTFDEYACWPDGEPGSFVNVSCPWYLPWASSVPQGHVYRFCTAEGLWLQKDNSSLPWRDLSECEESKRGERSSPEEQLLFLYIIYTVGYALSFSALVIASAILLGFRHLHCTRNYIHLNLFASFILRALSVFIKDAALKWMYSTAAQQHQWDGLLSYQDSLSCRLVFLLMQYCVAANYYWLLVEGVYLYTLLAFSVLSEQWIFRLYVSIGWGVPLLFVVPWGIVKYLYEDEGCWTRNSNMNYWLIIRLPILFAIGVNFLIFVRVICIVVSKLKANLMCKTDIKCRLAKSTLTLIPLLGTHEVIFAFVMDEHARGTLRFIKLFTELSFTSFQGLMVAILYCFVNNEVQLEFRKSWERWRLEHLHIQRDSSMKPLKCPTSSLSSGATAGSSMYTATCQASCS
Assay type: cell-based
Outline: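 CHO cells stably expressing human GLP-1R were incubated 1 h in HBSS/20 mM HEPES/0.1% BSA, then exposed to 10-point agonist dilutions for 30 min at 37 °C. cAMP increase was measured with an HTRF Gs dynamic kit; EC50 from sigmoidal fit of response versus log concentration.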
`O=C(O)c1ccc2nc(Cc3cc(F)c(-c4ccc(F)c(OCc5ncc(C(F)(F)F)s5)n4)cc3F)n(C[C@@H]3CCO3)c2c1` [Example 370, (S)-2-(2,5-difluoro-4-(5-fluoro-6-((5-(trifluoromethyl)thiazol-2-yl)methoxy)pyridin-2-yl)benzyl)-1-(oxetan-2-ylmethyl)-1H-benzo[d]imidazole-6-carboxylic acid] was tested, and the EC50 was 0.28 nM. In the case of `Cc1cc(Cc2nc3ccc(C(=O)O)cc3n2[C@@H]2COCC2(C)C)c(Cl)cc1-c1ccc(F)c(OCc2ncc(C(F)(F)F)s2)n1` [Example 371, (S)-2-(2-chloro-4-(5-fluoro-6-((5-(trifluoromethyl)thiazol-2-yl)methoxy)pyridin-2-yl)-5-methylbenzyl)-1-(4,4-dimethyltetrahydrofuran-3-yl)-1H-benzo[d]imidazole-6-carboxylic acid], the EC50 is reported as 1.77 nM. `N#Cc1cnc(COc2cccc(-c3cc(F)c(Cc4nc5c(F)cc(C(=O)O)cc5n4C[C@@H]4CCO4)cc3F)n2)s1` [Example 372, 2-[[4-[6-[(5-cyanothiazol-2-yl)methoxy]-2-pyridyl]-2,5-difluoro-phenyl]methyl]-7-fluoro-3-[[(2S)-oxetan-2-yl]methyl]benzimidazole-5-carboxylic acid] was tested, and the EC50 was 0.024 nM. Compound `CNC(=O)c1csc(COc2cccc(-c3cc(F)c(Cc4nc5ccc(C(=O)O)cc5n4C[C@@H]4CCO4)cc3F)n2)n1` [Example 373, (S)-2-(2,5-difluoro-4-(6-((4-(methylcarbamoyl)thiazol-2-yl)methoxy)pyridin-2-yl)benzyl)-1-(oxetan-2-ylmethyl)-1H-benzo[d]imidazole-6-carboxylic acid] has an EC50 of 0.079 nM. With `NC(=O)c1cccc(COc2cccc(-c3cc(F)c(Cc4nc5ccc(C(=O)O)cc5n4C[C@@H]4CCO4)cc3F)n2)n1` [Example 374, (S)-2-(4-(6-((6-carbamoylpyridin-2-yl)methoxy)pyridin-2-yl)-2,5-difluorobenzyl)-1-(oxetan-2-ylmethyl)-1H-benzo[d]imidazole-6-carboxylic acid] the EC50 was 0.478 nM. `N#CCCNC(=O)c1ccc(COc2cccc(-c3cc(F)c(Cc4nc5ccc(C(=O)O)cc5n4C[C@@H]4CCO4)cc3F)n2)cn1` [Example 375, (S)-2-(4-(6-((6-((2-cyanoethyl)carbamoyl)pyridin-3-yl)methoxy)pyridin-2-yl)-2,5-difluorobenzyl)-1-(oxetan-2-ylmethyl)-1H-benzo[d]imidazole-6-carboxylic acid] was tested, and the EC50 was 0.372 nM. `O=C(O)c1cc(F)c2nc(Cc3c(F)cc(-c4ccnc(OCc5nc(C(F)(F)F)cs5)n4)c(F)c3F)n(C[C@@H]3CCO3)c2c1` [Example 377, (S)-4-fluoro-1-(oxetan-2-ylmethyl)-2-(2,3,6-trifluoro-4-(2-((4-(trifluoromethyl)thiazol-2-yl)methoxy)pyrimidin-4-yl)benzyl)-1H-benzo[d]imidazole-6-carboxylic acid] gave an EC50 of 0.481 nM. Compound `CC(F)(F)c1cnc(COc2nc(-c3cc(F)c(Cc4nc5c(F)cc(C(=O)O)cc5n4C[C@@H]4CCO4)c(F)c3F)ccc2F)s1` [Example 378, (S)-2-(4-(6-((5-(1,1-difluoroethyl)thiazol-2-yl)methoxy)-5-fluoropyridin-2-yl)-2,3,6-trifluorobenzyl)-4-fluoro-1-(oxetan-2-ylmethyl)-1H-benzo[d]imidazole-6-carboxylic acid] has an EC50 of 0.068 nM. Work on `CC1(C#Cc2cnc(COc3cccc(-c4cc(F)c(Cc5nc6c(F)cc(C(=O)O)cc6n5C[C@@H]5CCO5)cc4F)n3)c(Cl)c2)CC1` [Example 379, (S)-2-(4-(6-((3-chloro-5-((1-methylcyclopropyl)ethynyl)pyridin-2-yl)methoxy)pyridin-2-yl)-2,5-difluorobenzyl)-4-fluoro-1-(oxetan-2-ylmethyl)-1H-benzo[d]imidazole-6-carboxylic acid] yielded an EC50 of 0.303 nM. Compound `O=C(O)c1cc(F)c2nc(Cc3cc(F)c(-c4cccc(OCc5ncc(C#CC6(CF)CC6)cc5Cl)n4)cc3F)n(C[C@@H]3CCO3)c2c1` [Example 380, (S)-2-(4-(6-((3-chloro-5-((1-(fluoromethyl)cyclopropyl)ethynyl)pyridin-2-yl)methoxy)pyridin-2-yl)-2,5-difluorobenzyl)-4-fluoro-1-(oxetan-2-ylmethyl)-1H-benzo[d]imidazole-6-carboxylic acid] has an EC50 of 0.078 nM. `O=C(O)c1cc(F)c2nc(Cc3cc(F)c(-c4cccc(OCc5ncc(C#CC6(C(F)F)CC6)cc5Cl)n4)cc3F)n(C[C@@H]3CCO3)c2c1` [Example 381, (S)-2-(4-(6-((3-chloro-5-((1-(difluoromethyl)cyclopropyl)ethynyl)pyridin-2-yl)methoxy)pyridin-2-yl)-2,5-difluorobenzyl)-4-fluoro-1-(oxetan-2-ylmethyl)-1H-benzo[d]imidazole-6-carboxylic acid] was tested, and the EC50 was 0.301 nM. `O=C(O)c1ccc2nc(Cc3cc(F)c(-c4cccc(OCc5ncc(-c6ccc(C(F)(F)F)cc6)s5)n4)cc3F)n(C[C@H]3CCO3)c2c1` [Example 382, (R)-2-(2,5-difluoro-4-(6-((5-(4-(trifluoromethyl)phenyl)thiazol-2-yl)methoxy)pyridin-2-yl)benzyl)-1-(oxetan-2-ylmethyl)-1H-benzo[d]imidazole-6-carboxylic acid] showed an EC50 of 1.27 nM. Work on `N#Cc1ccc(-c2cnc(COc3cccc(-c4cc(F)c(Cc5nc6ccc(C(=O)O)cc6n5C[C@@H]5CCO5)cc4F)n3)s2)cc1` [Example 383, (S)-2-(4-(6-((5-(4-cyanophenyl)thiazol-2-yl)methoxy)pyridin-2-yl)-2,5-difluorobenzyl)-1-(oxetan-2-ylmethyl)-1H-benzo[d]imidazole-6-carboxylic acid] yielded an EC50 of 0.6 nM. With `O=C(O)c1ccc2nc(Cc3cc(F)c(-c4cccc(OCc5ncc(-c6ccc(Cl)cc6)s5)n4)cc3F)n(C[C@@H]3CCO3)c2c1` [Example 384, (S)-2-(4-(6-((5-(4-chlorophenyl)thiazol-2-yl)methoxy)pyridin-2-yl)-2,5-difluorobenzyl)-1-(oxetan-2-ylmethyl)-1H-benzo[d]imidazole-6-carboxylic acid] the EC50 was 0.563 nM. `O=C(O)c1ccc2nc(Cc3cc(F)c(-c4cccc(OCc5nnc(C6CC(F)(F)C6)s5)n4)cc3F)n(C[C@@H]3CCO3)c2c1` [Example 385, (S)-2-(4-(6-((5-(3,3-difluorocyclobutyl)-1,3,4-thiadiazol-2-yl)methoxy)pyridin-2-yl)-2,5-difluorobenzyl)-1-(oxetan-2-ylmethyl)-1H-benzo[d]imidazole-6-carboxylic acid] gave an EC50 of 0.11 nM. Work on `CNC(=O)c1cc(Cl)c(COc2cccc(-c3cc(Cl)c(Cc4nc5c(F)cc(C(=O)O)cc5n4CCOC)cc3F)n2)cn1` [Example 386, 2-(2-chloro-4-(6-((4-chloro-6-(methylcarbamoyl)pyridin-3-yl)methoxy)pyridin-2-yl)-5-fluorobenzyl)-4-fluoro-1-(2-methoxyethyl)-1H-benzo[d]imidazole-6-carboxylic acid] yielded an EC50 of 0.121 nM. In the case of `O=C(O)c1cc(F)c2nc(Cc3cc(F)c(-c4ccc(F)c(OCc5ncc(-c6cnn(C(F)F)c6)s5)c4)cc3F)n(C[C@@H]3CCO3)c2c1` [Example 387, (S)-2-((3′-((5-(1-(difluoromethyl)-1H-pyrazol-4-yl)thiazol-2-yl)methoxy)-2,4′,5-trifluoro-[1,1′-biphenyl]-4-yl)methyl)-4-fluoro-1-(oxetan-2-ylmethyl)-1H-benzo[d]imidazole-6-carboxylic acid], the EC50 is reported as 0.095 nM.
